SMILES strings stand for the structures.

In the test the target is T1, mCD1d (mCD1-β2M) (Mus musculus, UniProt P11609).
T1 construct: gene Cd1d1; soluble CD1d ectodomain with beta2-microglobulin, insect cells; glycolipid-loaded; with Beta-2-microglobulin
T1 sequence (P11609 19-297): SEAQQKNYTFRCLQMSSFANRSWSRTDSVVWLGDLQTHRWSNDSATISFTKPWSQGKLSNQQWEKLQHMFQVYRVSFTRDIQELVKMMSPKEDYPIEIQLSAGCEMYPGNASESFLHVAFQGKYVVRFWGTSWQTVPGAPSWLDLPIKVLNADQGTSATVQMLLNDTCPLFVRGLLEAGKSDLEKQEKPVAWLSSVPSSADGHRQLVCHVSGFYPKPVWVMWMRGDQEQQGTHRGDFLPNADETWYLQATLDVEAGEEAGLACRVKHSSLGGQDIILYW
T1 sequence (P01887 21-119 partner): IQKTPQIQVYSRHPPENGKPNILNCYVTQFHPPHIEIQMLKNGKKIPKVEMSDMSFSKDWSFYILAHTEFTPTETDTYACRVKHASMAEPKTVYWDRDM
Nature of the test: X-ray crystal structure, […] Å. The following applies: CD1d binding groove (A' and F' pockets); spacer lipid in A' pocket.

With `CCCCCCCC(=O)N[C@@H](CO[C@H]1O[C@H](CO)[C@H](O)[C@H](O)[C@H]1O)[C@H](O)[C@H](O)CCCC(=O)NCCCCCCc1ccccc1` [5d, (5R,6S,7S)-5,6-dihydroxy-8-O-(α-D-galactopyranosyl)-7-octanamido-N-(6-phenylhexyl)octanamide], the “X-ray crystal structure, 1.75 Å” value is given as “we determined the crystal structure of the CD1d/5d-complex”.
